Data as given in patent US8809268B2, “Combination therapy to combat helminth resistance” (The Regents of The University of California, priority 2008, dated 2014).
Values after ≈ are worked out from the molar mass of the structure shown. Values joined by “and” are separate entries in the source; they are usually repeats but may differ in a detail not shown here. Equal values may be shown once. Read-outs that look alike come from different tables or passages of the source.

Tests used:
[1] = test system: wild-type C. elegans; format: in vivo, Caenorhabditis elegans
[2] = test system: C. elegans; experiment: Visual assay on tribendimidine, levamisole or pyrantel plates; conditions: tribendimidine and levamisole plates 100 μg/ml, pyrantel 100 mM stock 1:50 in agar
Method: Tribendimidine plates: stock solution (4 mg/ml) in water was prepared and added into standard C. elegans NG agar media (2.5 ml/100 ml) to a final concentration of 100 μg/ml. The mixture was poured into 35 mm plates (4 ml/plate). The plates were stored up to one week at 4° C. The plates were spread with OP50, a laboratory strain of E. coli commonly used as a food source for C. elegans. Resistant=good health and motility; susceptible=contracted, pale color, move slowly.

[3] = test system: C. elegans; experiment: whole plant or invertebrate; conditions: for LC50: 6 days at 25° C.; for viability of trb mutant nematodes at concentrations where most or all wild-type nematodes were dead: tribendimidine: trb-1 to trb-4, 100 μg/ml and greater, levamisole: trb-1, trb-2, trb-4, 1000 μM or greater
Method: LC50 assays determine the inhibitory concentration at which 50% of the nematodes are dead under certain conditions as calculated using the PROBIT algorithm. LC50 assays start with wild-type (N2) L4 nematodes. To get L4 nematodes, synchronous L1-staged nematodes (as per developmental assay) were plated onto OP50-seeded ENG plates (see below) and put at 20° for 44 h. The now L4-staged larvae were then washed off with water, spun down at 1800 rpm for 40 seconds, re-suspended with SS Media, spun again, and re-suspended in special SS Media to a concentration of 4 nematodes/μl. The assay was set up in a 48-well microtiter plate. Each well contained: 5 μl L4 nematodes (˜20 total), 40 μl of OP50 bacteria as a food source (see below for preparation), 20 μl of tribendimidine (prepared as below), 5 μl of FUdR (8 mM stock; see below), and SS Medium for a total of 200 μl. Each well was set up in triplicate. The plates were wrapped in moist paper towels, placed in a covered plastic box, and incubated at 25° C. for 6 days. The plates were then removed from the incubator and the nematodes transferred with a glass pipette into the well of a spot glass. Each nematode was then scored for dead or alive as follows. Using a thin platinum wire, each nematode was touched to see if it moved within 10 seconds of being touched. If it moved, it was scored as alive. If not, the touch was repeated a second time. If it moved after the second touch, it was scored as alive. […] The number of alive and dead nematodes was tallied for each well. The data from triplicate wells were combined into a single data point. The experiment was repeated for a total of three times on three different days (so a total of 9 wells per data point).
A tribendimidine stock solution was prepared at 4 mg/ml at 1% DMSO in SS Media (final concentration in the well will be 0.1% DMSO). 1% DMSO in SS Media was used as a dilutant to set up serial dilutions. For example, tube 1 contained 160 μl of 4 mg/ml Trib in 1% DMSO. Tube 2 contained 80 μl of the solution in Tube 1, diluted with 80 μl 1% DMSO (1:1 dilution; tube 2). Tube 3 contained 80 μl of the solution from Tube 2, diluted with 80 microliters 1% DMSO, etc. . . .
The trb mutant nematodes were isolated in the forward genetic screen for tribendimidine resistance described above. The LC50 assay was performed as previously described. A levamisole stock solution (100 mM stock) was prepared in water. Dilutions (2-fold) were made in SS Media accordingly such that 20 μl aliquots were added per well to give rise to the desired concentration.

[4] = test system: C. elegans; experiment: Brood size assay; format: in vivo, Caenorhabditis elegans; conditions: bre-5 mutant vs wild-type, 200 μg/ml tribendimidine, P<0.01
Method: L4 staged worms were used. One worm was picked up with an eyelash pick and placed in SS Media in a 48-well plate. […] The total volume was 200 μl. Each drug concentration was repeated in triplicate. The plates were incubated for 64 h at 25° C. The progeny were then transferred out of the well with a pipette onto an empty NG agar plate for counting. The experiment was repeated a total of three times.

[5] = test system: C. elegans; experiment: whole plant or invertebrate; format: in vivo, Caenorhabditis elegans; conditions: for IC50: Caenorhabditis elegans, 60 h
[6] = test system: C. elegans; experiment: Developmental assay on Cry14A dose response plates +/- levamisole; format: in vivo, Caenorhabditis elegans; conditions: N2 wild-type, levamisole 0.75 μg/ml
Method: Similar experiments with a strain that produces Cry14A, alone and in combination with levamisole were performed. […] The Bt strain used in these experiments expressed Cry14A and two insecticidal Cry proteins (Cry34A and Cry35A) that are not expected to affect nematodes. […] To confirm this conclusion, an independent test of synergy between levamisole and Cry14A was carried out. In these experiments, N2 wild-type worms were plated onto Cry14A plates+/−levamisole.

[7] = combination of Cry5B and nAChR agonist, 1:1 ratio (μg/ml)
[8] = trb-1, trb-2, trb-3, trb-4 mutants
[9] = Caenorhabditis elegans, 144 h, bre-2 mutant (Cry5B-resistant)
[10] = Caenorhabditis elegans, 144 h, bre-5 (ye17) mutant (Cry5B-resistant)
[11] = Caenorhabditis elegans, 144 h, wild-type (N2), L4 nematodes
[12] = combination of Cry6A and levamisole
[13] = combination of Cry21A and levamisole, 3 days at 20° C.
[14] = combination of levamisole and Bt strain producing Cry14A (also Cry34A, Cry35A)

Compound | synergism factor (CI value) at ED75 [1, 7] | synergism factor (CI value) at ED90 [1, 7] | synergism factor (CI value) at ED95 [1, 7] | appearance of nematodes on drug plates [2, 8] | appearance of nematodes on drug plates ([2]; wild-type) | LC50 [3, 9] [µg/mL] | LC50 [3, 10] [µg/mL] | LC50 [3, 11] [µg/mL] | LC50 ([3]; wild-type (N2), L4 nematodes) | viability of trb mutant nematodes at concentrations where most or all wild-type nematodes were dead [3] | other results
CN1CCCN=C1/C=C/c1cccs1 [Pyrantel] | 0.74 | 0.73 | 0.72 | resistant | sick | 10.9 (≈ 52.7 µM) | 114 (≈ 553 µM) | 502 (≈ 2430 µM) | 594.956 µg/mL (≈ 2880 µM) | – | –
C/C(=N\c1ccc(/N=C/c2ccc(/C=N/c3ccc(/N=C(\C)N(C)C)cc3)cc2)cc1)N(C)C [Tribendimidine] | 0.28 | 0.19 | 0.14 | resistant | sick | 7.27 (≈ 16.1 µM) | 12.3 (≈ 27.2 µM) | 54.4 (≈ 120 µM) | 58.372 µg/mL and 57.38 µg/mL | mostly or all alive | response of levamisole-resistant mutants in LC50 assay ([3]; mutants in 11 levamisole resistance genes (lev-1, lev-8, lev-9, lev-10, lev-11, unc-22, unc-29, unc-38, unc-50, unc-63, unc-74), high concentrations): resistant to tribendimidine; brood size, mutant relative to wild-type [4]: reduced significantly; IC50 ([5]; read-out: IC50 (inhibitory concentration at which 50% of the larvae are unable to complete development), wild-type (N2), L1 larvae, 60 h at 20° C.): 18.4 µg/mL (≈ 40.6 µM); IC50 ([5]; read-out: IC50 (larval development), bre-5 (ye17) mutant (Cry5B-resistant), 60 h at 20° C.): 13.2 µg/mL (≈ 29.1 µM); IC50 (inhibitory concentration at which 50% of the larvae are unable to complete development) ([5]; wild-type (N2), L1 larvae, 60 h at 20° C.): 14.718 µg/mL
c1ccc([C@H]2CN3CCSC3=N2)cc1 [Levamisole] | 0.29 | 0.22 | 0.19 | resistant | sick | 1.16 (≈ 5.68 µM) | 9.99 (≈ 48.9 µM) | 19.6 (≈ 96 µM) | 11.712 µg/mL (≈ 57.3 µM) | mostly or all alive | synergism factor (CI value) at ED75 [1, 12]: 0.96; synergism factor (CI value) at ED90 [1, 12]: 0.86; synergism factor (CI value) at ED95 [1, 12]: 0.82; synergism factor (CI value) at ED75 [1, 13]: 0.52; synergism factor (CI value) at ED90 [1, 13]: 0.42; synergism factor (CI value) at ED95 [1, 13]: 0.37; synergism factor (CI value) at ED75 [1, 14]: 0.60; synergism factor (CI value) at ED90 [1, 14]: 0.50; synergism factor (CI value) at ED95 [1, 14]: 0.44; effect of levamisole alone on worm development [6]: does not inhibit worm development; % alive ([3]; trb-3(ye494) nematodes at 1 mM (1000 μM) levamisole): > 40%
